This note sets out measurements from patent publication US20210260018A1, “COMPOSITION FOR TREATING FIBROTIC DISEASES, […] THI[…] AS ACTIVE INGREDIENT” (Cellion Biomed Inc., priority 2018, published 2021).

Assay [1] has as its system KCa2.3 channel. Briefly: KCa2.3 channel protein expression in hepatic stellate cells (western blotting). To be noted: exposure for 24 hours. The assay is classed as cell-based, human. The procedure:
(§1) Fibroblasts (CRL-2795; American Type Culture Collection, VA) were cultured in a Dulbecco's Modified Eagle Medium (Hyclone, Logan, Utah), human uterine microvascular endothelial cells (PromoCell GmbH, Heidelberg, Germany) were cultured in an MV2 medium (PromoCell GmbH), and human hepatic stellate cells (Innoprot, Bizkia, Spain) were cultured in a P60126 medium (Innoprot).
(§2) All cells were maintained under a 5% humidified carbon dioxide condition at 37° C. The cultured cells were exposed to each of PDGF, TGFβ, and the compounds of Formulas A1 to A9 (CBM-N1 N9) for 24 hours, followed by performing experiments.
Cells were lysed with a protein extraction buffer solution, a protein concentration in a supernatant was determined by Bradford analysis, and […] of the protein was loaded on an SDS-PAGE gel and then transferred to a nitrocellulose membrane. The nitrocellulose membrane was blocked with 5% BSA-containing TEST (10 mM Tris-HCl, 150 mM NaCl, and 0.1% (v/v) Tween-20, pH 7.6) at room temperature for 1 hour. Blots were incubated overnight with primary antibodies, and then incubated with horseradish peroxidase-conjugated secondary antibodies for 1 hour. Bands were visualized by chemiluminescence. Data collection and processing were performed using an image analyzer (LAS-3000) and IMAGE GAUSE software (Fuji film, Japan).

Assay [2] relates to KCa2.3 channel. Kind of assay: KCa2.3 current in hepatic stellate cells (whole-cell patch-clamp). The assay is classed as cell-based, human. To be noted: membrane potential of 1-50 mV, exposure for 24 hours. As to the method:
as §1, §2
A whole cell current through a cell membrane in the isolated and cultured single cells was measured using a patch-clamp technique. […]
A standard external solution contained 150 mM NaCl, 6 mM KCl, 1.5 mM CaCl2), 1 mM MgCl2, 10 mM HEPES and 10 mM glucose at pH 7.4 (titrated NaOH), and a micro glass electrode (pipette) solution contained 40 mM KCl, 100 mM K-aspartate, 2 mM MgCl2, 0.1 mM EGTA, 4 mM Na2ATP and 10 mM HEPES at pH 7.2 (titrated with KOH). A free Ca^2+ concentration in the pipette solution was adjusted to 1 μM by adding an appropriate amount of Ca^2+ in the presence of 5 mM EGTA (calculated with CaBuf; Droogmans, Leuven, Belgium), […]
(In patch-clamp work, channel activity is measured electrically.)

The next assay relates to fibroblasts. Kind of assay: MTT cell proliferation in fibroblasts exposed to TGFβ or PDGF. It is filed as cell-based. As to conditions: fibroblasts, TGFβ (5 ng/ml) or PDGF (20 ng/ml), 24 hours. The procedure: as §1, §2
Cells were seeded in 96-well plates at 2×10^4 cells/well, and then exposed to TGFB, which promotes cell proliferation, for 24 hours. In addition, 0.1 mg of MTT was added to each well, followed by exposure for 4 hours at 37° C. Afterward, the culture medium was removed, the cells were lysed with dimethyl sulfoxide, and then absorbance was measured at 590 nm using the following devices.

In assay [3] the test system is bleomycin-induced pulmonary fibrosis mouse models. Briefly: Bleomycin-induced pulmonary inflammation and fibrosis mouse model. It is filed as in vivo. As to conditions: lung tissue, bleomycin mice. The procedure: To confirm the effect of the compound of Formula A9 (CBM-N9) on pulmonary inflammation and fibrosis caused by bleomycin, the following experiments were performed on C57BL/6 wild-type mice. First, the mice were divided into a normal control, a disease-induced group, and a drug-administered group, and ten mice were included in each of the three groups. A drug treatment method for the mice in each group is as follows:
(1) Normal control: The same amount of distilled water as used when the bleomycin was applied in the disease-induced group was instilled intratracheally. In addition, a CBM-N9 solvent was intraperitoneally injected at the same amount used when CBM-N9 was administered to the disease-induced group to be described below five times a week.
(2) Disease-induced group: 1.5 units of bleomycin was instilled intratracheally. In addition, a CBM-N9 solvent was intraperitoneally injected at the same amount used in CBM-N9 administration five times a week.
(3) Drug-administered group: 1.5 units of bleomycin was intratracheally instilled. In addition, CBM-N9 (50 mg/kg) was injected intraperitoneally five times a week.
The mice treated with the drug for 4 weeks in the same manner as described above were instantly killed by excessively administering an anesthetic, and then the lungs were extracted.
To histologically confirm the therapeutic effect of the compound of Formula A1 (CBM-N1) or the compound of Formula A9 (CBM-N9) in each mouse model, a paraffin tissue sample was prepared. Liver and lung tissues were fixed with a paraformaldehyde solution, and sliced to a thickness of 1 to 2 mm. The sectioned tissues were embedded in paraffin, sliced to a thickness of 4 μm to remove paraffin with xylene, and the xylene was removed with ethanol, followed by washing with tap water. […]
Cells were lysed with a protein extraction buffer solution, a protein concentration in a supernatant was determined by Bradford analysis, and […] of the protein was loaded on an SDS-PAGE gel and then transferred to a nitrocellulose membrane. […]

As for `NC(=O)C[S+]([O-])C(c1ccc(F)cc1)c1ccc(F)cc1` (stereo not drawn) [CBM-N9, 2-[bis(4-fluorophenyl)methanesulfinyl]acetamide], the “expression of the KCa2.3 channel protein” value in the assay with KCa2.3 channel [1] is reported as “significantly reduced”. Further, the “KCa2.3 current densities versus cells not exposed” value with KCa2.3 channel [2] was “significantly decreased”. Moreover, in the assay on fibroblasts, the “TGFβ or PDGF-induced cell proliferation” value is on record as “significantly reduced”. Further, the “degrees of inflammation and fibrosis (H&E, CD45 immunohistochemistry, Masson's trichrome)” value in assay [3] (50 mg/kg intraperitoneally five times a week, 4 weeks, versus disease-induced group) is listed as “decreased”. Besides, in assay [3] (FIG. 13A), the “protein expression levels of inflammation markers TIMP-2 and CCR2” value was “greatly decreased”. Moreover, the “expression of fibrosis marker proteins (printed: protein expression levels of TIMP-2 and, CCR2)” value in assay [3] (FIG. 13B) is on record as “greatly decreased”.
